How the values were obtained:
[1] = system: primary human erythroid cells; settings: 0.5, 1.5 or 5 μM
Protocol: (§1) Cryopreserved vials of purified human CD34+ cells, which were isolated from peripheral blood of healthy donors after mobilization with granulocyte colony-stimulating factor, were purchased from the Fred Hutchinson Cancer Research Center. The cells were grown and differentiated ex vivo into the erythroid lineage in 14 days by a two-phase culture method reported previously (Cui et al., 2011, Mol. Cell. Biol., 31:3298-3311; Giarratana et al., 2005, Nat. Biotechnol., 23:69-74). […] Cell morphology was examined by staining cytospins with a Wright-Giemsa stain (Sigma-Aldrich). Hemoglobin synthesis was examined by acid benzidine staining as previously described (Orkin et al., 1975, PNAS USA, 72:98-102).
For cell surface marker analysis, cells were stained with phycoerythrin (PE)-Cy7-conjugated anti-CD34 (eBioscience), PE-conjugated anti-CD71 (eBioscience), and PE-Cy5-conjugated antiglycophorin A (BD Biosciences) antibodies. For cytoplasmic HbF analysis, cells were fixed in 0.05% glutaraldehyde for 10 min, permeabilized in 0.1% Triton X-100 for 5 min, and then stained with allophycocyanin-conjugated anti-HbF antibody (Invitrogen). Stained cells were analyzed with the FACSCanto II (BD Biosciences).

[2] = system: primary human erythroid cells; test: Proliferation and viability of differentiating erythroid cells, trypan blue count; assay type: cell-based; settings: day 4 through day 14
Protocol: as §1
(§2) A pLKO.1-puro lentiviral vector to express the LSD1 shRNA and a puromycin resistance gene was purchased from Sigma-Aldrich (TRCN0000046070), and the control empty vector was generated by removing a region (between EcoRI and NdeI sites) containing the hairpin sequence. Lentiviral particles were generated by transfecting the vectors into a packaging cell line. Cells were exposed to the viruses on day 4 of the culture for 24 hours, and then to 1 μg/ml puromycin on day 6 through day 14 for selection of infected cells.

[3] = system: primary human erythroid cells; test: Hemoglobin analysis by HPLC, HbF synthesis; assay type: cell-based; settings: day 14, average, untreated control 4.6%
Protocol: as §1
Cells were lysed and analyzed for hemoglobin composition by the B10-Rad Variant II Hemoglobin Testing System equipped with an ion-exchange HPLC column (Hercules). Averages of three to five biological replicates are presented.
as §2

[4] = 3 or 10 mg/kg per day s.c., 5 days a week for 4 weeks
Protocol: (§3) Control mice were injected with saline only. After 4 weeks of injections, bone marrow cells were harvested for RTqPCR analysis for expression of the genes for human gamma- and beta-globins, and mouse alpha-globin as an internal control. Three or four mice were used for each experimental condition.

Human beta-globin gene = settings: 3 or 10 mg/kg per day s.c., 5 days a week for 4 weeks
Protocol: (§4) Expression of the genes for human gamma- and beta-globins, LSD1, mouse alpha-globin, and 18S rRNA was determined by RT-qPCR assay as described previously (Cui et al., supra). The abundance of each transcript was calculated based on the threshold cycle value and the amplification efficiency, experimentally determined for each primer pair, and then normalized to the abundance of 18S rRNA transcript as an internal control. All the primer pairs except for 18S rRNA were designed to span introns.
as §3

human gamma-globin gene = settings: 3 or 10 mg/kg per day s.c., 5 days a week for 4 weeks; dose dependent
Protocol: as §4, §3

fetal gamma-globin mRNA = assay type: cell-based, human; settings: TC treatment, by day 14
Protocol: as §1
as §4, with “introns. […]” for “introns.”

[5] = system: H3K4 demethylase activity of LSD1; settings: differentiating erythroid cells, normalized to untreated cells
Protocol: as §1

gamma-globin promoter = settings: day 11
Protocol: as §1

## N[C@@H]1C[C@H]1c1ccccc1 (racemic) [TC, Tranylcypromine]
[1]
  cell population positive for both CD71 and GPA: slight to moderate reduction
[1]; day 14
  HbF inductive effect by flow cytometry: both pancellular and dose-dependent
[2]; 0.5 μM
  cell proliferation: did not affect
  cell viability: did not affect
[2]; 1.5 μM
  cell proliferation: did not affect
  cell viability: did not affect
[2]; 5 μM
  cell proliferation: reduced cell proliferation
  cell viability: without affecting viability
[3]; 0.5 μM
  HbF, % of total hemoglobin (HPLC): 13%
[3]; 1.5 μM
  HbF, % of total hemoglobin (HPLC): 20%
[3]; 5 μM
  HbF, % of total hemoglobin (HPLC): 31%
[4]
  activity of the mice (anecdotal observation): much more active
  signs of toxic effects on hematological or other systems: did not exhibit any signs of toxic effects
  tolerability: well tolerated
Human beta-globin gene
  human beta-globin gene expression in bone marrow cells: not significantly affected
Human gamma-globin gene
  induction of human gamma-globin gene expression in bone marrow cells vs control mice: about 3 fold
Fetal gamma-globin mRNA
  induction of fetal gamma-globin mRNA: up to 9.4 fold
[5]
  global H3K4 dimethylation: enhanced global H3K4 dimethylation in a dose dependent manner
gamma-globin promoter
  H3K4 dimethylation at the gamma-globin promoter: enhanced H3K4 dimethylation
